The source made the active and inactive calls. No cut-off for these calls is given here.
Key:
Rattus norvegicus [1] = assay: Neurotoxicity in Sprague-Dawley rat assessed as behavioral change at 30 mg/kg, po measured at […] post dose; assay type: toxicity, organism-based; conditions: in vivo
Mus musculus [2] = assay: Anticonvulsant activity in maximal electroshock induced seizure mouse model assessed as suppression in hindlimb tonic extension at 30 mg/kg, ip measured at 4 hrs post dose; assay type: functional, organism-based
Mus musculus [3] = assay: Anticonvulsant activity in maximal electroshock induced seizure mouse model assessed as suppression in hindlimb tonic extension at 100 mg/kg, ip measured at 4 hrs post dose; assay type: functional, organism-based
Mus musculus [4] = assay: Anticonvulsant activity in maximal electroshock induced seizure mouse model assessed as suppression in hindlimb tonic extension at 300 mg/kg, ip measured at 4 hrs post dose; assay type: functional, organism-based
Mus musculus [5] = assay: Neurotoxicity in mouse assessed as induction of motor impairment at 30 mg/kg, ip measured at 0.5 hrs post dose by rotarod method; assay type: toxicity, organism-based; conditions: in vivo
Mus musculus [6] = assay: Neurotoxicity in mouse assessed as induction of motor impairment at 30 mg/kg, ip measured at 4 hrs post dose by rotarod method; assay type: toxicity, organism-based; conditions: in vivo
Mus musculus [7] = assay: Neurotoxicity in mouse assessed as induction of motor impairment at 300 mg/kg, ip measured at 4 hrs post dose by rotarod method; assay type: toxicity, organism-based; conditions: in vivo
Rattus norvegicus [8] = assay: Neurotoxicity in Sprague-Dawley rat assessed as behavioral change at 30 mg/kg, po measured at 1 hr post dose; assay type: toxicity, organism-based; conditions: in vivo
Rattus norvegicus [9] = assay: Neurotoxicity in Sprague-Dawley rat assessed as behavioral change at 30 mg/kg, po measured at 0.5 hrs post dose; assay type: toxicity, organism-based; conditions: in vivo
Rattus norvegicus [10] = assay: Neurotoxicity in Sprague-Dawley rat assessed as behavioral change at 30 mg/kg, po measured at 2 hrs post dose; assay type: toxicity, organism-based; conditions: in vivo
Rattus norvegicus [11] = assay: Neurotoxicity in Sprague-Dawley rat assessed as behavioral change at 30 mg/kg, po measured at 4 hrs post dose; assay type: toxicity, organism-based; conditions: in vivo
Mus musculus [12] = assay: Neurotoxicity in mouse assessed as induction of motor impairment at 100 mg/kg, ip measured at 0.5 hrs post dose by rotarod method; assay type: toxicity, organism-based; conditions: in vivo
Mus musculus [13] = assay: Neurotoxicity in mouse assessed as induction of motor impairment at 100 mg/kg, ip measured at 4 hrs post dose by rotarod method; assay type: toxicity, organism-based; conditions: in vivo
Rattus norvegicus [14] = assay: Neurotoxicity in Sprague-Dawley rat assessed as behavioral change at 30 mg/kg, ip measured at […] post dose; assay type: toxicity, organism-based; conditions: in vivo
Rattus norvegicus [15] = assay: Neurotoxicity in Sprague-Dawley rat assessed as behavioral change at 30 mg/kg, ip measured at 0.5 hrs post dose; assay type: toxicity, organism-based; conditions: in vivo
Rattus norvegicus [16] = assay: Neurotoxicity in Sprague-Dawley rat assessed as behavioral change at 30 mg/kg, ip measured at 1 hr post dose; assay type: toxicity, organism-based; conditions: in vivo
Rattus norvegicus [17] = assay: Neurotoxicity in Sprague-Dawley rat assessed as behavioral change at 30 mg/kg, ip measured at 2 hrs post dose; assay type: toxicity, organism-based; conditions: in vivo
Rattus norvegicus [18] = assay: Neurotoxicity in Sprague-Dawley rat assessed as behavioral change at 30 mg/kg, ip measured at 4 hrs post dose; assay type: toxicity, organism-based; conditions: in vivo
Mus musculus [19] = assay: Anticonvulsant activity in ip dosed 6-Hz induced seizure mouse model assessed as restoration of normal activity within 10 secs from stimulation at 32 mA; assay type: functional
Mus musculus [20] = assay: Anticonvulsant activity in ip dosed pentylenetetrazole induced seizure mouse model; assay type: functional
Rattus norvegicus [21] = assay: Anticonvulsant activity in po dosed pentylenetetrazole induced seizure Sprague-Dawley rat model assessed as no observable episode of clonic convulsion of at least 5 secs; assay type: functional
Mus musculus [22] = assay: Anticonvulsant activity in maximal electroshock induced seizure mouse model assessed as suppression in hindlimb tonic extension at 100 mg/kg, ip measured at 0.5 hrs post dose; assay type: functional, organism-based
Mus musculus [23] = assay: Anticonvulsant activity in maximal electroshock induced seizure mouse model assessed as suppression in hindlimb tonic extension at 300 mg/kg, ip measured at 0.5 hrs post dose; assay type: functional, organism-based
Mus musculus [24] = assay: Anticonvulsant activity in pentylenetetrazole induced seizure mouse model assessed as no observable episode of clonic convulsion of at least 5 secs at 100 mg/kg, ip measured at 0.5 hrs post dose; assay type: functional, organism-based
Mus musculus [25] = assay: Anticonvulsant activity in pentylenetetrazole induced seizure mouse model assessed as no observable episode of clonic convulsion of at least 5 secs at 300 mg/kg, ip measured at 0.5 hrs post dose; assay type: functional, organism-based
Mus musculus [26] = assay: Neurotoxicity in mouse assessed as induction of motor impairment at 300 mg/kg, ip measured at 0.5 hrs post dose by rotarod method; assay type: toxicity, organism-based; conditions: in vivo
Mus musculus [27] = assay: Anticonvulsant activity in ip dosed maximal electroshock induced seizure mouse model assessed as suppression in hindlimb tonic extension by measuring time to peak effect; assay type: functional
Mus musculus [28] = assay: Neurotoxicity in ip dosed mouse assessed as induction of motor impairment by measuring time to peak effect by rotarod method; assay type: toxicity, organism-based; conditions: in vivo
Mus musculus [29] = assay: Anticonvulsant activity in ip dosed maximal electroshock induced seizure mouse model assessed as suppression in hindlimb tonic extension; assay type: functional
[30] = Neurotoxicity in ip dosed mouse; assay type: toxicity, organism-based; conditions: in vivo
[31] = Protection index, ratio of TD50 for neurotoxicity in ip dosed mouse to ED50 for ip dosed maximal electroshock induced seizure mouse model; assay type: toxicity, organism-based; conditions: in vivo, read-out: Ratio TD50/ED50
Mus musculus [32] = assay: Anticonvulsant activity in 6-Hz induced seizure mouse model assessed as restoration of normal activity within 10 secs from stimulation at 100 mg/kg, ip at 32 mA measured at […] post dose; assay type: functional, organism-based
Mus musculus [33] = assay: Anticonvulsant activity in 6-Hz induced seizure mouse model assessed as restoration of normal activity within 10 secs from stimulation at 100 mg/kg, ip at 32 mA measured at 0.5 hrs post dose; assay type: functional, organism-based
Mus musculus [34] = assay: Anticonvulsant activity in pentylenetetrazole induced seizure mouse model assessed as no observable episode of clonic convulsion of at least 5 secs at 300 mg/kg, ip measured at 4 hrs post dose; assay type: functional, organism-based
Mus musculus [35] = assay: Anticonvulsant activity in maximal electroshock induced seizure mouse model assessed as suppression in hindlimb tonic extension at 30 mg/kg, ip measured at 0.5 hrs post dose; assay type: functional, organism-based
Rattus norvegicus [36] = assay: Anticonvulsant activity in maximal electroshock induced seizure Sprague-Dawley rat model assessed as suppression in hindlimb tonic extension at 30 mg/kg, ip measured at […] post dose; assay type: functional, organism-based

SMILES | Activity (Rattus norvegicus [1]) | Activity (Mus musculus [5]) | Activity (Mus musculus [6]) | Activity (Mus musculus [7]) | Activity (Rattus norvegicus [8]) | Activity (Rattus norvegicus [9]) | Activity (Rattus norvegicus [10]) | Activity (Rattus norvegicus [11]) | Activity (Mus musculus [12]) | Activity (Mus musculus [13]) | Activity (Mus musculus [22]) | Activity (Mus musculus [23]) | Activity (Mus musculus [25]) | Activity (Mus musculus [26]) | also measured
Cc1ccccc1/C=C/C(=O)N[C@H]1CC[C@H](O)CC1 | Non-Toxic | Non-Toxic | Non-Toxic | Non-Toxic | Non-Toxic | Non-Toxic | Non-Toxic | Non-Toxic | – | – | – | – | – | – | Activity (Mus musculus [2]): Active; Activity (Mus musculus [3]): Active; Activity (Mus musculus [4]): Active
CCC(O)CNC(=O)/C=C/c1ccc(C)cc1 (configuration not stated) | – | – | – | – | – | – | – | – | Non-Toxic | Non-Toxic | – | – | – | – | Activity (Rattus norvegicus [14]): Non-Toxic; Activity (Rattus norvegicus [15]): Non-Toxic; Activity (Rattus norvegicus [16]): Non-Toxic; Activity (Rattus norvegicus [17]): Non-Toxic; Activity (Rattus norvegicus [18]): Non-Toxic
NC(=O)N1c2ccccc2C=Cc2ccccc21 [CARBAMAZEPINE] | – | – | – | – | – | – | – | – | – | – | – | – | – | – | ED50 (Mus musculus [19]): 47.9 mg/kg; ED50 (Mus musculus [20]): > 50 mg/kg; ED50 (Rattus norvegicus [21]): > 250 mg/kg
CC(CO)NC(=O)/C=C/c1ccc(Cl)cc1 (configuration not stated) | Non-Toxic | Non-Toxic | Non-Toxic | – | Non-Toxic | Non-Toxic | Non-Toxic | Non-Toxic | – | Non-Toxic | Active | Active | Active | Toxic | Activity (Mus musculus [4]): Active; Activity (Mus musculus [24]): Active
Cc1ccccc1/C=C/C(=O)NCC(C)O (configuration not stated) | – | Non-Toxic | Non-Toxic | – | – | – | – | – | – | Non-Toxic | Active | Active | Active | Toxic | Activity (Mus musculus [4]): Active; Activity (Mus musculus [24]): Active
Cc1ccccc1/C=C/C(=O)NC1CCCCC1O (racemic) | – | Non-Toxic | Non-Toxic | Non-Toxic | – | – | – | – | Non-Toxic | Non-Toxic | – | Active | – | Non-Toxic | –
Cc1ccc(/C=C/C(=O)NCC(C)O)cc1 (configuration not stated) | – | Non-Toxic | Non-Toxic | Non-Toxic | – | – | – | – | Non-Toxic | Non-Toxic | – | Active | Active | Toxic | –
CC[C@@H](CO)NC(=O)/C=C/c1ccc(C)cc1 | – | Non-Toxic | Non-Toxic | Non-Toxic | – | – | – | – | Non-Toxic | Non-Toxic | – | Active | Active | Toxic | –
CC(C)(CO)NC(=O)/C=C/c1ccc(Cl)cc1 | Non-Toxic | Non-Toxic | Non-Toxic | Non-Toxic | Non-Toxic | Non-Toxic | Non-Toxic | Non-Toxic | Non-Toxic | Non-Toxic | – | Active | – | – | Activity (Mus musculus [4]): Active; Activity (Rattus norvegicus [14]): Non-Toxic; Activity (Rattus norvegicus [15]): Non-Toxic; Activity (Rattus norvegicus [16]): Non-Toxic; Activity (Rattus norvegicus [17]): Non-Toxic; Activity (Rattus norvegicus [18]): Non-Toxic
CC[C@@H](CO)NC(=O)/C=C/c1ccccc1C | Non-Toxic | Non-Toxic | Non-Toxic | Non-Toxic | Non-Toxic | Non-Toxic | Non-Toxic | Non-Toxic | Non-Toxic | Non-Toxic | Active | Active | Active | Toxic | –
CC[C@H](CO)NC(=O)/C=C/c1ccc(Cl)cc1 | – | – | – | – | – | – | – | – | Toxic | – | Active | – | – | – | Time (Mus musculus [27]): 0.25 h; Time (Mus musculus [28]): 0.25 h; ED50 (Mus musculus [29]): 27.3 mg/kg; TD50 [30]: 105 mg/kg; selectivity ratio [31]: 3.85
Cc1ccccc1/C=C/C(=O)NC(C)CO (configuration not stated) | Non-Toxic | Non-Toxic | Non-Toxic | Non-Toxic | Non-Toxic | Non-Toxic | Non-Toxic | Non-Toxic | – | Non-Toxic | Active | Active | Active | Toxic | –
Cc1ccc(/C=C/C(=O)NC(C)CO)cc1 (configuration not stated) | Non-Toxic | Non-Toxic | Non-Toxic | Non-Toxic | Non-Toxic | Non-Toxic | Non-Toxic | Non-Toxic | Non-Toxic | Non-Toxic | Active | Active | Active | Toxic | –
Cc1ccccc1/C=C/C(=O)N[C@H](C)CO | Non-Toxic | Non-Toxic | Non-Toxic | Non-Toxic | Non-Toxic | Non-Toxic | Non-Toxic | Non-Toxic | Non-Toxic | Non-Toxic | – | Active | Active | Toxic | Activity (Mus musculus [32]): Active; Activity (Mus musculus [33]): Active
CCC(O)CNC(=O)/C=C/c1ccc(Cl)cc1 (configuration not stated) | – | Non-Toxic | Non-Toxic | Toxic | – | – | – | – | – | Non-Toxic | – | Active | Active | Toxic | Activity (Mus musculus [4]): Active; Activity (Mus musculus [24]): Active; Activity (Mus musculus [34]): Active
CCC(O)CNC(=O)/C=C/c1ccccc1C (configuration not stated) | Non-Toxic | – | Non-Toxic | Non-Toxic | Non-Toxic | Non-Toxic | Non-Toxic | Non-Toxic | – | Non-Toxic | Active | Active | Active | Toxic | Activity (Mus musculus [35]): Active; Activity (Mus musculus [32]): Active; Activity (Mus musculus [33]): Active; Activity (Rattus norvegicus [14]): Non-Toxic; Activity (Rattus norvegicus [15]): Non-Toxic; Activity (Rattus norvegicus [16]): Non-Toxic; Activity (Rattus norvegicus [17]): Non-Toxic; Activity (Rattus norvegicus [18]): Non-Toxic; Activity (Rattus norvegicus [36]): Active
Cc1ccc(/C=C/C(=O)NC2CCCCC2O)cc1 (racemic) | – | – | – | – | – | – | – | – | Non-Toxic | Non-Toxic | – | – | – | – | –
CC[C@@H](CO)NC(=O)/C=C/c1ccc(Cl)cc1 | – | – | – | – | – | – | – | – | Toxic | – | Active | – | – | – | Time (Mus musculus [27]): 0.25 h; Time (Mus musculus [28]): 0.25 h; ED50 (Mus musculus [29]): 43.3 mg/kg; TD50 [30]: 56.4 mg/kg; selectivity ratio [31]: 1.3

— ChEMBL document CHEMBL3875185, “Structure-anticonvulsant activity studies in the group of (E)-N-cinnamoyl aminoalkanols derivatives monosubstituted in phenyl ring with 4-Cl, 4-CH3 or 2-CH3” (Bioorg Med Chem, 2017)
